ChEMBL document CHEMBL1139498, “Discovery of potent, orally available vanilloid receptor-1 antagonists. Structure-activity relationship of N-aryl cinnamides” (J Med Chem, 2005)

Tests used:
[1] = biological target: T1, Transient receptor potential cation channel subfamily V member 1 (Homo sapiens, UniProt Q8NER1); experiment: Inhibition of pH-induced calcium uptake by transient receptor potential vanilloid type 1 expressed in CHO cells; type: functional, cell-based
[2] = biological target: T1, Transient receptor potential cation channel subfamily V member 1; experiment: Inhibition of capsaicin-induced calcium uptake by transient receptor potential vanilloid type 1 expressed in CHO cells; type: functional, cell-based
[3] = biological target: T1, Transient receptor potential cation channel subfamily V member 1; experiment: Agonistic activity for transient receptor potential vanilloid type 1 expressed in CHO cells; type: functional, cell-based
[4] = Plasma clearance in rat after intravenous administration of 2 mg/kg; type: ADME, organism-based; design: dose 2 mg/kg, route intravenous
[5] = Oral bioavailability in rat (dose 5 mg/kg); type: ADME, organism-based; conditions: in vivo
[6] = Steady state volume of distribution in rat after intravenous administration of 2 mg/kg; type: ADME, organism-based; design: dose 2 mg/kg, route intravenous; conditions: in vivo, read-out: Vss
[7] = Half life in rat after intravenous administration of 2 mg/kg; type: ADME, organism-based; design: dose 2 mg/kg, route intravenous; conditions: in vivo
[8] = Peak plasma concentration in rat after oral administration of 5 mg/kg; type: ADME, organism-based; design: dose 5 mg/kg, route oral
[9] = Area under concentration time curve from time 0 to infinity was determined in rat after oral administration of 5 mg/kg; type: ADME, organism-based; design: time infinity, dose 5 mg/kg, route oral; conditions: in vivo
[10] = Area under concentration time curve from time 0 to infinity was determined in rat after intravenous administration of 2 mg/kg; type: ADME, organism-based; design: time infinity, dose 2 mg/kg, route intravenous; conditions: in vivo
[11] = Maximum time required to attain Cmax in rat after oral administration of 5 mg/kg; type: ADME, organism-based; design: dose 5 mg/kg, route oral; conditions: in vivo
[12] = Half life in rat after intravenous administration of 3 mg/kg; type: ADME, organism-based; design: dose 3 mg/kg, route intravenous; conditions: in vivo
[13] = Area under concentration time curve from time 0 to infinity was determined in rat after intravenous administration of 3 mg/kg; type: ADME, organism-based; design: time infinity, dose 3 mg/kg, route intravenous; conditions: in vivo
[14] = Steady state volume of distribution in rat after intravenous administration of 3 mg/kg; type: ADME, organism-based; design: dose 3 mg/kg, route intravenous; conditions: in vivo, read-out: Vss
[15] = Plasma clearance in rat after intravenous administration of 3 mg/kg; type: ADME, organism-based; design: dose 3 mg/kg, route intravenous

T1 sequence (Q8NER1 whole entry): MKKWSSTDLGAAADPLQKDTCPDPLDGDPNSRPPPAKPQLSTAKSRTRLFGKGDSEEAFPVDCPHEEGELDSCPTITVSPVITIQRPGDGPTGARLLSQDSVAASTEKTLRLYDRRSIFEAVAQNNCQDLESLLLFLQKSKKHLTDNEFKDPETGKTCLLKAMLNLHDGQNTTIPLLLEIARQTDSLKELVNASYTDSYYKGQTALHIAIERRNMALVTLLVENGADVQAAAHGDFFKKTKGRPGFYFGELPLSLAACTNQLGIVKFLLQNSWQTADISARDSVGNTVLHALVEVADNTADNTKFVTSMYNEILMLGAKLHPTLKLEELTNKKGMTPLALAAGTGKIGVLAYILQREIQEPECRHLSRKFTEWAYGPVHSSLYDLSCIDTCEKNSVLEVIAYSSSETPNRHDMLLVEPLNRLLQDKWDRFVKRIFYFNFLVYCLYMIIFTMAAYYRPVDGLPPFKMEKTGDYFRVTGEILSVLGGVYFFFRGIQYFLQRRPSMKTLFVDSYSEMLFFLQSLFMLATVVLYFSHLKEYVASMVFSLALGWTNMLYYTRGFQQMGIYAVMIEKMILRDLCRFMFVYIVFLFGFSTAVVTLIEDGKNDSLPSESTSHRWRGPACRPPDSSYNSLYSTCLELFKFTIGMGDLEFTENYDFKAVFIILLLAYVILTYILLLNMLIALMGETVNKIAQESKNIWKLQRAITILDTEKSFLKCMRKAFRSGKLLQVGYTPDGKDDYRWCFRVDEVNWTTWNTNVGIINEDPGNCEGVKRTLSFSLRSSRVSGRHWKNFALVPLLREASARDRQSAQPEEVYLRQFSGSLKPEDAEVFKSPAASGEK

| Compound | IC50 [1] | IC50 [2] | other results |
| --- | --- | --- | --- |
| COc1ccc(NC(=O)/C=C/c2ccc(C(C)(C)C)cc2)cc1 | > 4 µM | 0.14 µM |  |
| CC(C)(C)c1ccc(/C=C/C(=O)Nc2ccc3c(c2)OCCO3)c(C(=O)O)c1 | > 4 µM | > 4 µM |  |
| CC(C)(C)c1ccc(/C=C/C(=O)Nc2ccc3c(c2)OCCO3)cn1 | 2.4 µM | 0.1 µM |  |
| CN(C)CCC/C(=C\C(=O)Nc1ccc2c(c1)OCCO2)c1ccc(C(C)(C)C)cc1 | > 4 µM | 3.9 µM |  |
| Cc1ccc(/C=C/C(=O)Nc2ccc3c(c2)OCCO3)cc1 | 1.1 µM | 0.21 µM |  |
| CCOC(=O)CC/C(=C\C(=O)Nc1ccc2c(c1)OCCO2)c1ccc(C(C)(C)C)cc1 | 0.29 µM | 0.036 µM |  |
| O=C(/C=C/c1ccc(C(F)(F)F)nc1N1CCCCC1)Nc1ccc2c(c1)OCCO2 | 0.054 µM | 0.027 µM |  |
| CC(C)C/C(=C\C(=O)Nc1ccc2c(c1)OCCO2)c1ccc(C(C)(C)C)cc1 | 0.094 µM | 0.016 µM |  |
| CC(C)(C)c1ccc(/C(=C/C(=O)Nc2ccc3c(c2)OCCO3)c2cccnc2)cc1 | 0.51 µM | 0.078 µM |  |
| COc1ccccc1NC(=O)/C=C/c1ccc(C(C)(C)C)cc1 | > 4 µM | 0.55 µM |  |
| COc1cc(NC(=O)/C=C/c2ccc(C(C)(C)C)cc2)ccc1O |  |  | EC50 [3]: 0.44 µM |
| CCc1ccc(/C=C/C(=O)Nc2ccc3c(c2)OCCO3)cc1 | 0.22 µM | 0.17 µM |  |
| CC(C)(C)c1ccc(/C=C(/C(=O)Nc2ccc3c(c2)OCCO3)c2ccccc2)cc1 | > 4 µM | > 4 µM |  |
| O=C(/C=C/c1ccc(Cl)cc1)Nc1ccc2c(c1)OCCO2 | 0.32 µM | 0.25 µM |  |
| COc1ccc(NC(=O)/C=C/c2ccc(C(C)(C)C)cc2)cc1OC | > 4 µM | 0.17 µM |  |
| CC(C)(C)c1ccc(/C=C/C(=O)Nc2ccc3c(c2)NC(=O)CC3)cc1 | 0.071 µM |  |  |
| CC(C)(C)c1ccc(/C=C/C(=O)Oc2ccc3c(c2)OCCO3)cc1 | 3.2 µM |  |  |
| O=C(/C=C/c1ccc(C(F)(F)F)nc1)Nc1ccc2c(c1)OCCO2 | 1.29 µM | 0.87 µM |  |
| O=C(/C=C/c1ccc(F)cc1)Nc1ccc2c(c1)OCCO2 | > 4 µM | 1 µM |  |
| O=C(/C=C/c1ccc(C(F)(F)F)nc1N1CCOCC1)Nc1ccc2cccnc2c1 | 0.0013 µM | 0.0019 µM | clearance ([4]; plasma): 0.9 L/h/kg; bioavailability [5]: 39%; Vd [6]: 1.1 L/kg; half-life [7]: 0.9 h; Cmax [8]: 0.54 µg/mL; AUC(0-inf) [9]: 2.6 µg·h/mL; AUC [10]: 2.3 µg·h/mL; Tmax [11]: 1.5 h |
| CC(C)(C)c1ccc(/C=C/C(=O)Nc2ccc3cccnc3c2)cc1 | 0.00202 µM |  |  |
| O=C(/C=C/c1ccc(C(F)(F)F)nc1N1CCCCC1)Nc1ccc2cccnc2c1 | 0.001 µM | 0.00042 µM | CL ([4]; in vivo): 0.8 L/h/kg; F [5]: 17%; Vd [6]: 2.8 L/kg; half-life [7]: 2.9 h; Cmax [8]: 0.32 µg/mL; AUC [9]: 2.4 µg·h/mL; AUC [10]: 2.1 µg·h/mL; Tmax [11]: 2 h |
| CC(C)(C)c1ccc(/C=C/C(=O)Nc2ccc3c(c2)CCCC3)cc1 | 0.96 µM | 0.061 µM |  |
| O=C(/C=C/c1ccccc1)Nc1ccc2c(c1)OCCO2 | > 4 µM | > 4 µM |  |
| CC(C)(C)c1ccc(/C=C/C(=O)Nc2ccc3c(c2)OCCN3)cc1 | 0.057 µM | 0.016 µM |  |
| CC(C)(C)c1ccc(/C=C/CNc2ccc3c(c2)OCCO3)cc1 | > 4 µM | > 4 µM |  |
| CC(C)(C)c1ccc(/C(=C/C(=O)Nc2ccc3c(c2)OCCO3)Cc2ccccc2)cc1 | 0.11 µM | 0.014 µM |  |
| CC(C)(C)c1ccc(C2CC2C(=O)Nc2ccc3c(c2)OCCO3)cc1 (centres undefined) | > 4 µM | 1.8 µM |  |

More lines, main results first:

| IC50 [1] | IC50 [2] | Compound | other results |
| --- | --- | --- | --- |
| 0.66 µM | 0.044 µM | CC(C)(C)c1ccc(/C(=C/C(=O)Nc2ccc3c(c2)OCCO3)c2ccncc2)cc1 |  |
| 0.66 µM | 0.15 µM | CC(C)(C)c1ccc(CCC(=O)Nc2ccc3c(c2)OCCO3)cc1 |  |
| 0.6 µM |  | C/C(=C\c1ccc(C(C)(C)C)cc1)C(=O)Nc1ccc2c(c1)OCCO2 |  |
| > 4 µM | 0.57 µM | CC(C)(C)c1ccc(/C=C/C(=O)Nc2ccc3c(c2)OCO3)cc1 |  |
| 0.12 µM | 0.02 µM | CC(C)(C)c1ccc(/C(=C/C(=O)Nc2ccc3c(c2)OCCO3)c2ccccc2)cc1 |  |
| 0.18 µM | 0.025 µM | CC(C)(C)c1ccc(/C(=C/C(=O)Nc2ccc3c(c2)OCCO3)c2ccc(C(F)(F)F)cc2)cc1 |  |
| > 4 µM | > 4 µM | CN(C(=O)/C=C/c1ccc(C(C)(C)C)cc1)c1ccc2c(c1)OCCO2 |  |
| 0.86 µM | 0.36 µM | CC(C)Cc1ccc(/C=C/C(=O)Nc2ccc3c(c2)OCCO3)cc1 |  |
| > 4 µM | 0.62 µM | CC(C)(C)c1cccc(/C=C/C(=O)Nc2ccc3c(c2)OCCO3)c1 |  |
| 2.9 µM | 0.5 µM | CC(C)(C)c1ccc(/C=C/C(=O)Nc2ccc3c(c2)OCCO3)nc1 |  |
| > 4 µM | > 4 µM | CC(C)(C)c1ccc(/C(=C/C(=O)Nc2ccc3c(c2)OCCO3)CCC(=O)O)cc1 |  |
| 0.026 µM | 0.015 µM | CCOC(=O)c1cc(C(C)(C)C)ccc1/C=C/C(=O)Nc1ccc2c(c1)OCCO2 |  |
| 2.7 µM | 0.36 µM | CCCCc1ccc(/C=C/C(=O)Nc2ccc3c(c2)OCCO3)cc1 |  |
| > 4 µM | > 4 µM | O=C(/C=C/c1ccc(-c2ccccc2)cc1)Nc1ccc2c(c1)OCCO2 |  |
| > 4 µM | 0.27 µM | CC(C)(C)c1ccc(/C=C/C(=O)Nc2ccc3c(c2)OCC(=O)N3)cc1 |  |
| > 4 µM | > 4 µM | O=C(/C=C/c1ccc(O)cc1)Nc1ccc2c(c1)OCCO2 |  |
| > 4 µM |  | COc1ccc(NC(=O)/C=C/c2ccc(C(C)(C)C)cc2)cc1O |  |
| 0.16 µM | 0.036 µM | CC(C)(C)c1ccc(/C=C/C(=O)Nc2ccc3c(c2)NCCC3)cc1 |  |
| > 4 µM | 0.021 µM | COc1cccc(NC(=O)/C=C/c2ccc(C(C)(C)C)cc2)c1 |  |

| IC50 [1] | IC50 [2] | Compound | other results |
| --- | --- | --- | --- |
| 0.04 µM | 0.015 µM | O=C(/C=C/c1ccc(C(F)(F)F)nc1N1CCOCC1)Nc1ccc2c(c1)OCCO2 |  |
| 0.15 µM | 0.017 µM | CC(C)(C)c1ccc(/C=C/C(=O)Nc2ccc3c(c2)OCCO3)cc1 (stereo in doubt; 1) | bioavailability [5]: 3%; Cmax [8]: 0.025 µg/mL; AUC(0-inf) [9]: 0.024 µg·h/mL; half-life [12]: 1.1 h; AUC [13]: 0.68 µg·h/mL; Vd [14]: 2.1 L/kg; clearance [15]: 4.4 L/h/kg; Tmax [11]: 0.5 h |
|  | 0.42 µM | Oc1cc2c(cc1O)CN(C(=S)NCCc1ccc(Cl)cc1)CCC2 [CAPSAZEPINE] |  |
| 0.47 µM | 0.06 µM | CC(C)(C)c1ccc(/C=C/C(=O)Nc2ccc3c(c2)OCCO3)c(Br)c1 |  |
| 0.37 µM | 0.11 µM | O=C(/C=C/c1ccc(Br)cc1)Nc1ccc2c(c1)OCCO2 |  |
| 0.082 µM | 0.055 µM | CC(C)c1ccc(/C=C/C(=O)Nc2ccc3c(c2)OCCO3)cc1 |  |
| > 4 µM |  | CC(C)(C)c1ccc(/C=C/C(=O)Nc2ccccc2)cc1 |  |
| 1.4 µM | 0.28 µM | CC(C)(C)c1ccc(/C=C/C(=S)Nc2ccc3c(c2)OCCO3)cc1 |  |
| 3.2 µM |  | CC(C)(C)c1ccc(/C=C/C(=O)Nc2ccc3c(c2)OCCO3)cc1 (stereo in doubt; 34) |  |
| 0.43 µM |  | C/C(=C\C(=O)Nc1ccc2c(c1)OCCO2)c1ccc(C(C)(C)C)cc1 |  |
| 0.8 µM | 0.21 µM | CC/C(=C\c1ccc(C(C)(C)C)cc1)C(=O)Nc1ccc2c(c1)OCCO2 |  |
| 0.1 µM | 0.046 µM | O=C(/C=C/c1ccc(C(F)(F)F)cc1)Nc1ccc2c(c1)OCCO2 |  |
| > 4 µM | 0.11 µM | CC(C)(C)c1ccc(/C=C/C(=O)Nc2ccc3c(c2)NCCO3)cc1 |  |
| 0.87 µM | 0.36 µM | Cc1nc(C(F)(F)F)ccc1/C=C/C(=O)Nc1ccc2c(c1)OCCO2 |  |
| > 4 µM | 2.7 µM | CC(C)(C)c1ccc(C(=CC(=O)Nc2ccc3c(c2)OCCO3)c2ccc(C(C)(C)C)cc2)cc1 |  |
| 0.44 µM | 0.19 µM | O=C(/C=C/c1ccc([N+](=O)[O-])cc1)Nc1ccc2c(c1)OCCO2 |  |
| > 4 µM | 0.0065 µM | CC(C)(C)c1ccc(/C=C/C(=O)Nc2ccc3c(c2)NC(=O)CO3)cc1 |  |
| > 4 µM | 1.8 µM | COc1ccc(/C=C/C(=O)Nc2ccc3c(c2)OCCO3)cc1 |  |
